20 compounds from patent US7947707B2, “Nitrogenated heterocyclic compound and pharmaceutical composition comprising the same” (Kissei Pharmaceutical Co., Ltd., priority 2005, dated 2011) can be followed below.

Assay [1] concerns the target T1, xanthine oxidase (from buttermilk) (Bos taurus, UniProt P80457).
T1 construct: xanthine oxidase (from buttermilk; biozyme laboratories); purchased biozyme laboratories; host or cells: buttermilk (natural source)
The assay can be described thus: Xanthine oxidase inhibitory effect. The class given is biochemical. The note with it: 100 μmol/L xanthine, 5 mU/mL enzyme; read-out: X.O. inhibition IC50. How it is done:
Assay for inhibition of xanthine oxidase was performed in 100 μmol/L substrate concentration (final concentration), 5 mU/mL enzyme concentration (final concentration) and compounds of the present invention as test compounds which were prepared with xanthine oxidase (from buttermilk; biozyme laboratories), xanthine (Sigma) and phosphate-buffered saline (PBS). In addition, all test compounds were frozen for preservation in condition of 20 mmol/L DMSO solution and used for experiments after thawing at need. Method is following: after diluted solution of test compound was added to 90 μL of 11.1 mU/mL enzyme solution, the mixture was incubated for 10 minutes after mixing. To start reaction, 100 μL of 200 μmol/L substrate solution was added to there, 10 minutes later, the reaction was stopped by addition of 500 μL of 0.5 mol/L sulfuric acid, and then absorbance at […] was measured. Final concentration of test compound was a single concentration, 10 μmol/L in single well for initial screening and 6 concentrations, 10, 1 μmol/L, 100, 10, 1 nmol/L, 100 pmol/L in duplicate for assay to calculate 50% inhibitory concentration (IC50) which were used for assay. Percent inhibition was calculated according to the formula described below. Percent inhibition (%)=(A−B)/(A−C)×100
In formula, A means absorbance in wells without test compound, B means absorbance in wells with test compound, C means absorbance in blank wells.
IC50 value was calculated from percent inhibition in each concentration by nonlinear regression method.

Assay [2] concerns the target T2, HEK293 cells forced to express URAT1 (Homo sapiens, UniProt Q96S37).
T2 construct: host or cells: HEK293
T2 sequence (Q96S37 1-553): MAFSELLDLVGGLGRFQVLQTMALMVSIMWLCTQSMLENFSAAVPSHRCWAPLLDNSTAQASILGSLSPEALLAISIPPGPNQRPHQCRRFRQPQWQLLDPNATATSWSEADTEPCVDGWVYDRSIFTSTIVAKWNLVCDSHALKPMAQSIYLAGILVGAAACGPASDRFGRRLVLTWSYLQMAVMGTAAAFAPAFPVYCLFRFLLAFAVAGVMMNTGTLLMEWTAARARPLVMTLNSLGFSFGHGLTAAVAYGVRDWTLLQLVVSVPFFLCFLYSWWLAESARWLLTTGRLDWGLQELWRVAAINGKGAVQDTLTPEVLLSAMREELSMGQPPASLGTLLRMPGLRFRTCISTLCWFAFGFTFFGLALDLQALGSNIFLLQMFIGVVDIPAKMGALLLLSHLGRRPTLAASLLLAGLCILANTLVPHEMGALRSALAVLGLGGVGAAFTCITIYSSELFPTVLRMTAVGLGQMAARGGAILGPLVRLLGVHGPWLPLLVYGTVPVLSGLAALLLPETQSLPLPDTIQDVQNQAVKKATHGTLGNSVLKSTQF
The assay can be described thus: URAT1 inhibitory effect, [8-14C] uric acid uptake. Type of assay: cell-based. The settings on record: test compound 100 μmol/L, 20 μmol/L uric acid, 5 minutes uptake. The text has this:
DMEM containing 10% FBS (supplemented with 0.05% geneticin, Nissui Pharmaceutical Co., Ltd.), HEK293 cells forced to express URAT1 (HCS (Human cell Systems), (Fuji Biomedix)), HBSS as washing buffer and HBSS substituted with Na-gluconate (NaCl in HBSS was substituted with Na-gluconate) were used for assay. [8-^14C] uric acid (moravek) was used as an uric acid reagent and added to assay buffer at 20 μmol/L as a final concentration. Compounds of the present invention were used as a test compound, 20 mmol/L stock solution of each test compound (DMSO solution) was diluted appropriately, and then the diluted test compound solution was added to assay buffer at 100 μmol/L as a final concentration including 0.5% final concentration of DMSO.
To prepare assay plates, at first, cells on subculture petri dish were peeled off using treatment of 0.05% trypsin-EDTA solution, and then seeded on Biocoat Poly-D-Lysine Cellware 24 well plate (BECTON DICKINSON) at a density of 2×10^5 cells/well and cultured for 2 days.
For the uptake study, at first, culture medium was removed by aspiration and cells were washed twice with HBSS (37° C.), then the buffer was replaced with 1 mL of assay buffer (37° C.). Cells were pre-incubated for 10 minutes. And then, the buffer was removed by aspiration and 0.5 mL of radioisotope ligand solution incubated at 37° C. was added, then cells were incubated for 5 minutes. After uptake, radioisotope solution was removed by aspiration, and immediately cells were washed three times with ice-cold HBSS, followed by resolving by addition of 0.5 mL of 0.5 mol/L NaOH. Cell lysate solution was transferred to a vial or 24 well plate for Betaplate, and mixed with 0.5 mL of liquid scintillator (Optiphase ‘Super Mix’; Perkin Elmer). Radioisotope activity was measured (using Betaplate 1450). As mean count in control solution not including test compound was 100%, percent inhibition was calculated by determining percent decrease in mean count in solution including test compound from mean count in control solution.

Assay [3] concerns potassium oxonate induced hyperuricemia. The assay can be described thus: Blood hypouricemic effect, potassium oxonate induced hyperuricemia. Type of assay: in vivo. The note with it: Rattus norvegicus, po, male SD rats, serum 2 hours after administration, read-out: Decrease (%) in UA concentration; for inhibition in vivo at 10 mg/kg: 10 mg/kg orally. How it is done: Effect of compound of the present invention as a test compound was studied on potassium oxonate induced hyperuricemia with male 7-week-old SD rats (Charles River Japan) and potassium oxonate (Aldrich) suspended in 1% gum arabic solution. Test compound was suspended in 0.5% CMC-Na solution, and then administered orally. Dosing was 10 mg/kg or 50 mg/kg. All volume of administered solution was 10 mL/kg. Potassium oxonate 250 mg/kg was administered to dorsal region of rats subcutaneously, 1 hour later each test compound was administered orally. For control group, only 0.5% CMC-Na solution as a vehicle was administrated. At 2 hours after administration of test compounds or vehicle, blood was collected under ether anesthesia, and serum was separated according to general method. Treated number was 5 for each group.
Measurement of concentration of uric acid was conducted with following prepared reagents. The deproteinization reagent was prepared in the following manner; 100 g of sodium tungstate was added to a 2 L flask, and exactly 75 mL of 85% phosphoric acid and 500 mL of water were added to the flask equipped with a reflux condenser, and heated for an hour. After cooling, the resulting faint yellow-green solution was diluted to 1 L exactly. Sodium carbonate-urea reagent was prepared in the following manner; 14 g of anhydrous sodium carbonate and 14 g of urea were dissolved in water and final volume of the solution was adjusted to 100 mL exactly. Phosphotungstic coloring reagent was prepared in 4-fold dilution of deproteinzation reagent described above with water. UA standard solution (10 mg/dL: Kyokuto pharmaceutical industrial CO., LTD) was used as an uric acid standard solution, and then serially diluted uric acid standard solution with purified water was also used for standard curve.
Three hundred μL of serum or standard was added to 2.1 mL of purified water, and then 150 μL of deproteination reagent was also added to the solution, followed by mixing. After incubating for 20 minutes, the mixture was centrifuged at 3000 rpm for 10 minutes. Sodium carbonate-urea reagent (0.5 mL) was added to 1.5 mL of supernatant, and the mixture was incubated for 20 minutes. Next, after addition of 250 μL of coloring reagent, further incubation was carried over 15 minutes. Absorbance at 660 nm was measured, and concentration of uric acid was calculated with standard curve. Percent decrease in concentration of uric acid was calculated by following formula. Percent decrease in concentration of uric acid (%)=(A−B)/A×100
In formula, A means average of concentration of blood uric acid in control group, B means average of concentration of blood uric acid in test compounds-treated group.

T1 sequence (P80457 whole entry): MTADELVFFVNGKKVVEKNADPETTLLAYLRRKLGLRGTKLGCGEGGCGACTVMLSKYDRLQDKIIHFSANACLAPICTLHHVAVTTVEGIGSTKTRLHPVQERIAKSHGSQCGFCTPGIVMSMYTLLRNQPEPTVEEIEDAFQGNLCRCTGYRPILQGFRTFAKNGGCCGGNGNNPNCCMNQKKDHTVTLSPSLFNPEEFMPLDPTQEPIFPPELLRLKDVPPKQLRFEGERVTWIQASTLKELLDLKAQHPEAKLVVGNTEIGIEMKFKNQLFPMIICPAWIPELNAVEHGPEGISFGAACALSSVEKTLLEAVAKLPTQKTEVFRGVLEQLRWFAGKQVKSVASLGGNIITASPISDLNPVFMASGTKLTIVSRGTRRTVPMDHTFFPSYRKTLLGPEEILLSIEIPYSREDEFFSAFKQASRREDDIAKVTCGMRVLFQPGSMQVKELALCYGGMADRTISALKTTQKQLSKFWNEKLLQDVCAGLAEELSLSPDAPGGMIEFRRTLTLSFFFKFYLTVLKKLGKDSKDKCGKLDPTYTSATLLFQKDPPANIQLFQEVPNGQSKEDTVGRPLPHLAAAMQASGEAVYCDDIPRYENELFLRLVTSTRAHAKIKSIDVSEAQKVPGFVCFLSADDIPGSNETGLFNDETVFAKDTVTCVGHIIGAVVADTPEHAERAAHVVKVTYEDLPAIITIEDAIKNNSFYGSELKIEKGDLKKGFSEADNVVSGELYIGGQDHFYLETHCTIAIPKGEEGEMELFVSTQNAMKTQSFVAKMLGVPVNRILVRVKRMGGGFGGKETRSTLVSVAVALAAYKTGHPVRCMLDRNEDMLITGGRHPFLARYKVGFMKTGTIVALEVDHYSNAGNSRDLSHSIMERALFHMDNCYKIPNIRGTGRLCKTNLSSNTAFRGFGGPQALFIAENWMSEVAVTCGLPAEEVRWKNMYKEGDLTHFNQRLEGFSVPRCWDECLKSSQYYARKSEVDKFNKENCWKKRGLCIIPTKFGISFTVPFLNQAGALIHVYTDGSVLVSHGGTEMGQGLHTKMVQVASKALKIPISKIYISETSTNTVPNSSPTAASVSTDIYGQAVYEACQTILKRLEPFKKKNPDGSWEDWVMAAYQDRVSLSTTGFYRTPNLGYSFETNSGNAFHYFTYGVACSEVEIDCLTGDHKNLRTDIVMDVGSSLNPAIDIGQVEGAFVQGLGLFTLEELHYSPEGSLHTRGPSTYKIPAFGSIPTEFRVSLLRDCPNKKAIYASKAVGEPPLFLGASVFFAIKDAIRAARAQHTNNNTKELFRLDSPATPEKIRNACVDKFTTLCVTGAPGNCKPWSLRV

As to `COc1cccc2c1c(C#N)cn2-c1ccc(C(=O)O)cc1` [XO-CH211], in assay [1], the IC50 turned out to be 16.4 nM. This compound came in with an inhibition at 100 µM in assay [2] of 81.1%.

`N#Cc1cn(-c2ccc(C(=O)O)cc2)c2cc3c(cc12)OCO3` [XO-CH199]: in assay [1], the IC50 was determined as 49.1 nM. The compound further yielded an inhibition at 100 µM in assay [2] of 91.5%.

As to `N#Cc1cn(-c2ccc(C(=O)O)cc2)c2ccc(Cl)cc12` [XO-CH160], the IC50 in assay [1] was found to be 26.7 nM. The compound also yielded an inhibition at 100 µM in assay [2] of 93.8%.

For `COc1ccc2c(C#N)cn(-c3ccc(C(=O)O)cc3)c2c1` [XO-CH207], the IC50 in assay [1] came to 96.5 nM. Besides, in assay [2], the inhibition at 100 µM worked out at 93.9%.

For `N#Cc1cn(-c2ccc(-c3nnn[nH]3)cc2)c2ccccc12` [XO-CH150], the half-maximal inhibitory concentration (IC50) in assay [1] was 31.6 nM. Further, the inhibition at 100 µM in assay [2] came to 79.3%.

As for `N#Cc1cn(-c2ccc(C(=O)O)cc2)cc1-c1ccccc1C(F)(F)F` [XO-B412], in assay [1], the 50% inhibitory concentration (IC50) came to 6.38 nM. Moreover, testing at 100 µM in assay [2] gave an inhibition of 50.5%.

As for `N#Cc1cn(-c2ccc(C(=O)O)cc2)c2cccc(Cl)c12` [XO-CH201], in assay [1], the IC50 is 50.5 nM. For the same compound, the inhibition at 100 µM in assay [2] amounted to 88.6%.

In the case of `N#Cc1cn(-c2ccc(C(=O)O)cc2)cc1-c1ccc2c(c1)OCCO2` [XO-B434], the IC50 in assay [1] came to 3.82 nM. For the same compound, in assay [3], the inhibition in vivo at 10 mg/kg stood at 63.2%. In assay [2], this compound displayed an inhibition at 100 µM of 68.8%.

For `N#Cc1cn(-c2ccc(C(=O)O)cc2)nc1-c1ccsc1` [XO-TT571], in assay [1], the 50% inhibitory concentration (IC50) stood at 4.79 nM. Moreover, in assay [3], the inhibition in vivo at 10 mg/kg is 62%. In addition, in assay [2], at 100 µM the inhibition was 70.8%.

On to `N#Cc1cn(-c2ccc(C(=O)O)cc2)nc1-c1cccs1` [XO-TT508], for which the IC50 in assay [1] was found to be 3.74 nM. Further, the inhibition at 100 µM in assay [2] is 67.1%.

Regarding `Cc1ccsc1-c1cn(-c2ccc(C(=O)O)cc2)cc1C#N` [XO-B407], the IC50 in assay [1] was 4.73 nM. For the same compound, in assay [3], the inhibition in vivo at 10 mg/kg amounted to 76.9%. The compound further gave an inhibition at 100 µM in assay [2] of 55.5%.

Regarding `N#Cc1cn(-c2ccc(C(=O)O)cc2)c2ccccc12` [XO-CH146], the IC50 in assay [1] is 50.5 nM. This compound yielded an inhibition at 100 µM in assay [2] of 92.1%.

Take `N#Cc1cn(-c2ccc(C(=O)O)cc2)c2ncc(Br)cc12` [XO-KT16]: in assay [1], the IC50 stood at 99.2 nM. In assay [2], the inhibition at 100 µM is 92.4%.

As to `N#Cc1cn(-c2ccc(C(=O)O)cc2)c2cc(Cl)ccc12` [XO-CH209], in assay [1], the IC50 was 60.8 nM. Besides, at 100 µM the inhibition in assay [2] was 97.1%.

Turning to `N#Cc1cn(-c2ccc(C(=O)O)cc2)cc1-c1ccsc1` [XO-B418], in assay [1], the IC50 came out at 4.63 nM. Besides, in assay [3], the inhibition in vivo at 10 mg/kg was found to be 79.1%. In addition, testing at 100 µM in assay [2] gave an inhibition of 62.6%.

As for `COc1ccc2c(c1)c(C#N)cn2-c1ccc(C(=O)O)cc1` [XO-CH183], in assay [1], the IC50 was 14.5 nM. For the same compound, in assay [2], at 100 µM the inhibition was 80.6%.

In the case of `N#Cc1cn(-c2ccc(C(=O)O)cc2)cc1-c1cccs1` [XO-B401], in assay [1], the IC50 is 5.98 nM. The inhibition in vivo at 10 mg/kg in assay [3] came to 78.8%. Besides, at 100 µM the inhibition in assay [2] was 59.5%.

In the case of `Cc1ccc2c(c1)c(C#N)cn2-c1ccc(C(=O)O)cc1` [XO-CH164], the IC50 in assay [1] worked out at 13.8 nM. Moreover, the inhibition in vivo at 50 mg/kg in assay [3] (50 mg/kg orally) was 51.4%. Besides, the inhibition at 100 µM in assay [2] stood at 92.3%.

`Cc1cccc2c(C#N)cn(-c3ccc(C(=O)O)cc3)c12` [XO-CH205] yielded an inhibition at 100 µM in assay [2] of 95.7%.

Take `N#Cc1cn(-c2ccc(C(=O)O)cc2)c2ccc(F)cc12` [XO-CH168]: in assay [1], the IC50 turned out to be 57.1 nM. Also, in assay [2], the inhibition at 100 µM was determined as 92.5%.

The term IC50 denotes the concentration that inhibits the measured activity by half. For orientation: inhibition means how much of the control response was suppressed.
